Assay results as given in patent US12403121B2, “Anticancer rocaglamide derivatives” (priority 2018, dated 2025).

Experiments:
[1] = Kinghorn et al. 2016 and NCI Developmental Therapeutics Program study, same conditions; cited from earlier work
[2] = Saradhi et al. 2011; cited from earlier work
[3] = tested on: 697-R leukemic cells (overexpress MDR1/Pgp); test: Cell proliferation, MDR1-overexpressing silvestrol-resistant 697-R leukemic cells; assay type: cell-based; settings: MDR1, 72 h, read-out: IC50 in 697-R cells
Procedure: (§1) FIGS. 3A-3C provide graphs showing that, unlike silvestrol, DDR and Roe inhibits proliferation of MDR1-overexpressing 697-R leukemic cells at IC50 values similar to parental silvestrol-sensitive 697 cells. Cell proliferation was measured on 697-R and parental 697 pre-B leukemia cells treated for 3 days with various concentrations of silvestrol (A), DDR (B), and Roc (C). Each treatment was performed in six replicates, and each experiment was repeated twice. Shown are representative dose-response growth inhibition curves from experiments for all three drugs that were run in parallel. The IC50 values for individual growth curves are shown in the graph insets.
(§2) The human MPNST cell lines, ST8814, STS26T, S462, T265, and luciferase-expressing ST8814-Luc, the human NF2-deficient meningioma cell line Ben-Men-1, the NJ2 mouse schwannoma cell line Sch10545, and primary human Schwann cells were propagated as previously described. Oblinger et al., Neuro-Oncol., 18:1265-1277 (2016). […]
(§3) Actively-growing cells were seeded in 96-well plates (Sarstedt) at 2,000 cells/well for Ben-Men-1 and RD cells, 30,000 cells/well for 697 and 697-R cells, and 4,000 cells/well for all other cell lines. […] Cell proliferation was assessed using resazurin assays and the IC50 value calculated. […]

[4] = tested on: 697 pre-B leukemia cells; test: Cell proliferation, parental silvestrol-sensitive 697 leukemic cells; assay type: cell-based; settings: 72 h, 3 days treatment
Procedure: as §1, §2, §3

[5] = target: multidrug resistance 1 (MDR1) transporter (Homo sapiens, UniProt P08183); settings: cited from earlier work
[6] = tested on: Sch10545 Nf2−/− schwannoma cells; test: 3-day resazurin cell proliferation assay, Sch10545 schwannoma cells; assay type: cell-based, mouse; settings: Mus musculus, 72 h, read-out: IC50 (nM) Sch10545 Nf2−/− schwannoma cells
Procedure: (§4) The human MPNST cell lines, ST8814, STS26T, S462, T265, and luciferase-expressing ST8814-Luc, the human NF2-deficient meningioma cell line Ben-Men-1, the NJ2 mouse schwannoma cell line Sch10545, and primary human Schwann cells were propagated as previously described. Oblinger et al., Neuro-Oncol., 18:1265-1277 (2016). The Ewing sarcoma cell line A673 and the osteosarcoma cell lines, 143B and MG-63, were grown in Dulbecco's Modified Eagle's (DME) medium (Millipore-Sigma) supplemented with 10% fetal bovine serum (FBS; Atlanta Biological). The silvestrol-sensitive 697 and silvestrol-resistant 697-R pre-B acute lymphoblastic leukemia cells (Gupta et al., AAPS J., 13:357-364 (2011)), the Ewing sarcoma cell line TC32, the osteosarcoma cell lines, Saos2 and OS17, and the rhabdomyosarcoma cell line RD were cultivated in RPMI 1640 medium (Millipore-Sigma) plus 10% FBS.
(§5) Actively-growing cells were seeded in 96-well plates (Sarstedt) at 2,000 cells/well for Ben-Men-1 and RD cells, 30,000 cells/well for 697 and 697-R cells, and 4,000 cells/well for all other cell lines. The following day, cells were treated with various concentrations of each compound or and 0.05% of DMSO as the control for six days for MG-63 cells or three days for all remaining cell lines. Cell proliferation was assessed using resazurin assays and the IC50 value calculated. Cell cycle analysis was performed accordingly. Burns et al., Cancer Res., 73:792-803 (2013).
(§6) To search for compounds with better drug-like properties, the inventors conducted a side-by-side comparison of ten rocaglates lacking the dioxanyl ring with silvestrol for growth-inhibitory activity in a panel of MPNST, schwannoma, and meningioma cell lines, which they had previously shown to be sensitive to the antiproliferative action of silvestrol. […] The average IC50 value of each rocaglate was determined by 3-day resazurin proliferation assays. […] Further structure and activity comparison discerned some positions on the cyclopenta[b]benzofuran scaffold that affected the antiproliferative activity of rocaglates.

[7] = tested on: ST8814 NF1−/− MPNST cells; test: 3-day resazurin cell proliferation assay, ST8814 MPNST cells; assay type: cell-based, human; settings: Homo sapiens, ST88-14, 72 h, read-out: IC50 (nM) ST8814 NF1−/− MPNST cells
Procedure: as §4, §5, §6

[8] = tested on: Ben-Men-1 NF2−/− meningioma cells; test: 3-day resazurin cell proliferation assay, Ben-Men-1 meningioma cells; assay type: cell-based, human; settings: Homo sapiens, 72 h, read-out: IC50 (nM) Ben-Men-1 NF2−/− meningioma cells
Procedure: as §4, §5, §6

[9] = tested on: STS26T NF1+/+ MPNST cells; test: 3-day resazurin cell proliferation assay, STS26T MPNST cells; assay type: cell-based, human; settings: Homo sapiens, STS-26T, 72 h, read-out: IC50 (nM) STS26T NF1+/+ MPNST cells
Procedure: as §4, §5, §6

[10] = tested on: STS26T cells; test: Western blots of treated MPNST cells; assay type: cell-based, human; settings: 1 or 2 IC50
Procedure: FIGS. 2A and 2B provide images showing that DDR and Roc increase caspase and PARP cleavage and elevated the levels of γH2AX while decreasing the expression of AKT and ERKs in MPNST cells. (A) Protein lysates prepared from STS26T cells treated for 3 days with 1 or 2 IC50 of DDR or Roc were analyzed by Western blots for the expression of various apoptosis-related proteins and mitogenic kinases AKT and ERK1/2. GAPDH served as a loading control. (B) Western blot analysis was performed on lysates from STS26T cells treated for 1 and 2 days with 1 or 2 IC50 of DDR for the expression of the DNA-damage response biomarker phosphorylated H2A.X (γH2A.X). As a positive control, lysates from HMS-97 human malignant schwannoma cells irradiated with 4 Grays (Gy) of X-ray were used.
(§7) Subconfluent cells were treated with the indicated doses of Roc or DDR for 24-72 hours and then harvested in cell lysis buffer (Cell Signaling Technology) containing 1 mM phenylmethylsufonylfluoride and protease inhibitor cocktail (Sigma-Aldrich). The protein content in cleared lysates was quantitated using the microBCA assay (ThermoFisher). Equal amounts of protein were run in sodium dodecyl sulfate-polyacrylamide gels and electrotransferred onto Immobilon-FL PVDF membranes (Millipore). The antibodies used were directed against: MDR1/ABCB1 (#13978), insulin-like growth factor-1 receptor β subunit (IGF-1Rβ; #9750), AKT (#9272), ERK1/2 (#4695), glyceraldehyde-3-phosphate dehydrogenase (GAPDH; #5174), caspase-3 (#9662), caspase-7 (#9492), cleaved caspase-7 (#9491), poly(ADP-ribose) polymerase (PARP; #9532), cleaved PARP (#5625), and phospho-histone H2A.X (pH2A.X[Ser′^39]; #9718; all from Cell Signaling Technology), NKX2.2 (sc-514161), LSD1 (sc-136174), and survivin (sc-17779; Santa Cruz Biotechnology), and FLI1 (ab15289) and cleaved caspase-3 (CC3; ab32042; Abeam). Protein bands were detected using IRDye® infrared fluorescent dye-labeled secondary antibodies and scanning on an Odyssey CLx imaging system (LI-COR Biosciences) using the appropriate fluorescent channel at a resolution of 84 μm.
To confirm induction of apoptosis in rocaglamide-treated MPNST cells, the inventors analyzed protein expression of several markers important for this process. […] A concomitant decrease in the amounts of intact caspases 3 and 7 and PARP was observed, consistent with the enhanced cleavage of these apoptotic markers and possibly due to direct effects of these rocaglamides on protein translation. Likewise, the levels of the pro-survival kinases AKT and ERK1/2 were diminished in rocaglamide-treated MPNST cells.

[11] = tested on: TC32 Ewing sarcoma, 143B osteosarcoma, and RD rhabdomyosarcoma cells; test: Western blots of treated sarcoma cells; assay type: cell-based
Procedure: FIGS. 7A-7C provide images showing DDR and Roc reduce multiple signaling proteins important for the growth and survival of sarcoma cells. Lysates prepared from TC32 Ewing sarcoma (A), 143B osteosarcoma (B), and RD rhabdomyosarcoma (C) cells were treated 1 and 2 days with the indicated concentrations of DDR or Roc and analyzed by Western blotting for the expression of various oncogenic driver proteins. GAPDH was used as a loading control.
as §7
To further examine the molecular mechanisms underlying the antiproliferative effects of rocaglamides, the inventors treated TC32 Ewing sarcoma, 143B osteosarcoma, and RD rhabdomyosarcoma cells with 1- or 2-IC50 dose of DDR or rocaglamide for 1-2 days followed by Western blotting for several known drivers of cell survival and proliferation. […] They also observed reduction of the IGF-1Rβ levels in rocaglamide-treated MPNST cells. In addition, Roc and DDR decreased the levels of AKT, ERKs, cyclin D1 and survivin in treated TC32, 143B, and RD cells (FIG. 7). Intriguingly, the oncogenic fusion protein EWS-FLI1, which acts as an aberrant transcription factor in Ewing sarcoma, was not affected in Roc- and DDR-treated TC32 Ewing sarcoma cells (FIG. 7A). […] However, the expression of lysine demethylase 1 (LSD1), which modulates EWS-FLI1 transcriptional activity (Sankar et al., Oncogene, 32:5089-5100 (2013)), and NKX2.2, an EWS-FL11-regulated gene necessary for oncogenic transformation (Smith et al., Cancer Cell, 9:405-416 (2006)), were diminished by these rocaglamides in TC32 cells (FIG. 7A).

[12] = tested on: STS26T and ST8814 MPNST cells; test: Flow cytometry cell cycle analysis; assay type: cell-based, human; settings: one- or two-IC50 doses, three days
Procedure: as §5

[13] = tested on: panel of MPNST, schwannoma, and meningioma cell lines; test: Side-by-side growth inhibition comparison with silvestrol in a cell line panel; assay type: cell-based; settings: all cell lines tested
Procedure: as §5, §6

[14] = tested on: A673, TC32, 143B, MG-63, Saos2, OS17 and RD sarcoma cell lines; test: Cell proliferation in Ewing sarcoma, osteosarcoma and rhabdomyosarcoma cell lines; assay type: cell-based
Procedure: as §4, §5
Since MPNSTs comprise only ˜2% of all sarcomas (Farid et al. Oncologist, 19:193-201 (2014)), the inventors expanded their testing of Roc and DDR to three other more prevalent sarcomas particularly in children and young adults: Ewing sarcoma, osteosarcoma, and rhabdomyosarcoma.

Row | SMILES | pulmonary toxicity in dogs [1] | oral bioavailability [2] | IC50 [3] [nM] | IC50 [4] [nM] | substrate for the MDR1 transporter [5] | IC50 [6] [nM] | IC50 [7] [nM] | IC50 [8] [nM] | IC50 [9] [nM] | levels of γH2AX ([10]; STS26T MPNST cells) | cleavage of caspases 3 and 7 and PARP ([10]; STS26T cells, 3 days) | expression of AKT and ERKs ([10]; STS26T cells, 3 days) | levels of the β subunit of IGF-1R ([11]; 1- or 2-IC50 dose, 1-2 days, all three sarcoma cell lines) | levels of AKT, ERKs, cyclin D1 and survivin ([11]; TC32, 143B, and RD cells, 1- or 2-IC50 dose, 1-2 days) | EWS-FLI1 fusion protein level ([11]; TC32 Ewing sarcoma cells) | expression of LSD1 and NKX2.2 ([11]; TC32 cells) | G2/M fraction [12] | potency relative to silvestrol [13] [fold] | IC50 values of DDR compared with Roc ([14]; every sarcoma cell line tested) | activity against sarcoma cell lines ([14]; two Ewing sarcoma, four osteosarcoma, one rhabdomyosarcoma cell lines)
1 | COC(=O)[C@H]1[C@@H](O)[C@@]2(O)c3c(OC)cc(O[C@@H]4O[C@@H]([C@H](O)CO)CO[C@H]4OC)cc3O[C@@]2(c2ccc(OC)cc2)[C@@H]1c1ccccc1 [Silvestrol, reference compound] | unexpected pulmonary toxicity | less than 2% | 26 | 3.5 | substrate | 70 | 40 | 10 | 10 | – | – | – | – | – | – | – | – | – | – | –
2 | COc1ccc([C@@]23Oc4cc(OC)cc(OC)c4[C@]2(O)[C@H](O)[C@H](C(N)=O)[C@H]3c2ccccc2)cc1 [Didesmethylrocaglamide] | – | – | – | – | – | 10 | 5 | 5 | 5 | elevated | increased cleavage | decreasing | reliably reduced | decreased | not affected | diminished | marked increase in the GVM fraction | ~2 | lower IC5O values than Roc | highly active
